# Assays:
# [1] = molecular target: Genome polyprotein (Coxsackievirus B3 (strain Nancy), UniProt P03313); assay: Enzyme Inhibition Assay; settings: pH 6.5; 25 °C
# Description: (§1) Peptidomimetic inhibitors against CVB3 3Cpro and SARS-CoV 3CLpro. The inhibition constant of SARS 3CLpro was analyzed with reverse-phase HPLC using a C-18 column.
# [2] = molecular target: Replicase polyprotein 1ab (Severe acute respiratory syndrome coronavirus, UniProt P0C6X7); assay: Enzyme Inhibition Assay; settings: pH 6.5; 25 °C
# Description: as §1
# Genome polyprotein, sequence (P03313 1541-1723 limits assumed): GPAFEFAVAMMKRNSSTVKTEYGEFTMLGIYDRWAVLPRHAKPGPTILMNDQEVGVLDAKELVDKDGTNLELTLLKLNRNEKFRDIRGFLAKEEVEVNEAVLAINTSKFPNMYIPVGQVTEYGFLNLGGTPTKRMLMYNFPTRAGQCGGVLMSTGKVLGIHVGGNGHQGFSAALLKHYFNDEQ
SMILES,Ki [1],Ki [2]
CC(=O)CC=C(C[C@@H]1CCNC1=O)NC(=O)[C@H](CC(C)C)NC(=O)[C@H](CNC(=O)C(C)(C)C)NC(=O)OCc1ccccc1 [TG-0204998],800 nM,–
CC(C)C[C@H](NC(=O)[C@@H](NC(=O)OCc1ccccc1)C(C)OC(C)(C)C)C(=O)NC(=CCC(=O)C1CC1)C[C@@H]1CCNC1=O (stereo partly specified) [TG-0205486],400 nM,–
"C[C@H](OC(C)(C)C)[C@H](NC(=O)OCc1ccccc1)C(=O)N[C@@H](CC1CCCCC1)C(=O)N[C@H](C=O)C[C@@H]1CCNC1=O [benzyl N-[(1S,2S)-2-(tert-butoxy)-1-{[(1S)-2-cyclohexyl-1-{[(2S)-1-oxo-3-[(3S)-2-oxopyrrolidin-3-yl]propan-2-yl]carbamoyl}ethyl]carbamoyl}propyl]carbamate]",2500 nM,54 nM
"CCOC(=O)/C=C/[C@H](C[C@@H]1CCNC1=O)NC(=O)[C@H](CC(C)C)NC(=O)[C@@H](NC(=O)OCc1ccccc1)C(C)OC(C)(C)C (stereo partly drawn) [ethyl (2E,4S)-4-[(2S)-2-[(2S,3S)-2-{[(benzyloxy)carbonyl]amino}-3-(tert-butoxy)butanamido]-4-methylpentanamido]-5-[(3S)-2-oxopyrrolidin-3-yl]pent-2-enoate]",1500 nM,58 nM

# Source: BindingDB's records for doi:10.1074/jbc.M807947200 (National Yang-Ming University, 2009)
